Source: ChEMBL document CHEMBL1132132, “Synthesis of heparin partial structures and their binding activities to platelets” (1999)

Assays:
Type in all cases: functional
Homo sapiens [1] = species: Homo sapiens; test: Platelets binding activity relative to heparin was evaluated by competitive binding assay using [3H]-labeled heparin at concentration ~1000 uM
Homo sapiens [2] = species: Homo sapiens; test: Platelets binding activity relative to heparin was evaluated by competitive binding assay using [3H]-labeled heparin at concentration ~400 uM
Homo sapiens [3] = species: Homo sapiens; test: Platelets binding activity relative to heparin was evaluated by competitive binding assay using [3H]-labeled heparin at concentration ~1.2 uM
Homo sapiens [4] = species: Homo sapiens; test: Platelets binding activity relative to heparin was evaluated by competitive binding assay using [3H]-labeled heparin at concentration 0.001 uM
Homo sapiens [5] = species: Homo sapiens; test: Platelets binding activity relative to heparin was evaluated by competitive binding assay using [3H]-labeled heparin at concentration ~80 uM
Homo sapiens [6] = species: Homo sapiens; test: Platelets binding activity relative to heparin was evaluated by competitive binding assay using [3H]-labeled heparin at concentration ~1.9 uM
Homo sapiens [7] = species: Homo sapiens; test: Platelets binding activity relative to heparin was evaluated by competitive binding assay using [3H]-labeled heparin at concentration ~60 uM
Homo sapiens [8] = species: Homo sapiens; test: Platelets binding activity relative to heparin was evaluated by competitive binding assay using [3H]-labeled heparin at concentration ~50 uM

| Structure (SMILES) | Binding (Homo sapiens [1]) | Binding (Homo sapiens [2]) | Binding (Homo sapiens [3]) | Binding (Homo sapiens [4]) | Binding (Homo sapiens [5]) | Binding (Homo sapiens [6]) | Binding (Homo sapiens [7]) | Binding (Homo sapiens [8]) |
| --- | --- | --- | --- | --- | --- | --- | --- | --- |
| CO[C@H]1O[C@H](COS(=O)(=O)[O-])[C@@H](O[C@H]2O[C@H](C(=O)[O-])[C@@H](OC)[C@H](O)[C@H]2OS(=O)(=O)[O-])[C@H](O)[C@H]1NS(=O)(=O)[O-].[Na+].[Na+].[Na+].[Na+] | 97% | 96% | 96% | 115% | 97% |  |  |  |
| CO[C@H]1O[C@H](CO)[C@@H](O[C@H]2O[C@H](C(=O)[O-])[C@@H](OC3O[C@H](COS(=O)(=O)[O-])[C@@H](OC)[C@H](O)[C@H]3NS(=O)(=O)[O-])[C@H](O)[C@H]2OS(=O)(=O)[O-])[C@H](O)[C@H]1NS(=O)(=O)[O-].[Na+].[Na+].[Na+].[Na+].[Na+] (stereo not given in full) | 110% | 110% | 100% |  |  | 100% | 105% |  |
| CO[C@H]1O[C@H](COS(=O)(=O)[O-])[C@@H](O[C@H]2O[C@H](C(=O)[O-])[C@@H](O[C@H]3O[C@H](COS(=O)(=O)[O-])[C@@H](OC)[C@H](O)[C@H]3NS(=O)(=O)[O-])[C@H](O)[C@H]2OS(=O)(=O)[O-])[C@H](O)[C@H]1NS(=O)(=O)[O-].[Na+].[Na+].[Na+].[Na+].[Na+].[Na+] | 97% | 100% | 105% |  |  | 105% |  | 105% |
| CO[C@@H]1O[C@H](C(=O)[O-])[C@@H](O[C@H]2O[C@H](COS(=O)(=O)[O-])[C@@H](OC)[C@H](OS(=O)(=O)[O-])[C@H]2NS(=O)(=O)[O-])[C@H](O)[C@H]1OS(=O)(=O)[O-].[Na+].[Na+].[Na+].[Na+].[Na+] | 75% | 115% | 100% |  | 100% | 98% |  |  |
